Measurements reported in patent publication US20150105252A1, “SUBSTITUTED PYRAZOLES AS HERBICIDES” (E I DU PONT DE NEMOURS AND COMPANY, priority 2013, published 2015).

How the values were obtained:
waterhemp [1] = assay: Test C preemergence; assay type: in vivo, Amaranthus rudis; details: for Waterhemp plant response rating: scale 0 to 100 (0 no effect, 100 complete control)
Outline: (§1)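 Seeds sown in loam–sand blend and treated preemergence with test chemicals in non-phytotoxic solvent with surfactant; postemergence plants in peat-based medium, treated at 2–18 cm (1- to 4-leaf stage). Greenhouse 13 to 15 days, then visual rating versus controls, 0 (no effect) to 100 (complete control).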

velvetleaf = assay: Test C preemergence; assay type: in vivo, Abutilon theophrasti; details: for Velvetleaf plant response rating: scale 0 to 100 (0 no effect, 100 complete control)
Outline: as §1

crabgrass, large = assay: Test C preemergence; assay type: in vivo, Digitaria sanguinalis; details: for Crabgrass, Large plant response rating: scale 0 to 100 (0 no effect, 100 complete control)
Outline: as §1

morningglory [2] = assay: Test C postemergence; assay type: in vivo, Ipomoea coccinea
Outline: as §1

barnyardgrass = assay: Test B flood; assay type: in vivo, Echinochloa crus-galli; details: 250 g ai/ha, visual rating on 0 to 100 scale (0 no effect, 100 complete control), 13 to 15 days
Outline: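 Plants were grown to the 2-leaf stage and pots flooded to 3 cm above soil. Compounds were applied directly into the paddy water, with depth kept for the test. After 13–15 days in greenhouse, response was rated visually against controls on a 0 (no effect) to 100 (complete control) scale.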

oilseed rape = assay: Test C postemergence; assay type: in vivo, Brassica napus
Outline: as §1

wheat = assay: Test A postemergence; assay type: in vivo, Triticum aestivum
Outline: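 Pre- and postemergence greenhouse test; loam+sand; cpd in non-phytotox. solvent/surfactant; post at 1–2 leaf, 2–10 cm; visual score ~10 d, 0 = none, 100 = complete control.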

lambsquarters = assay: Test C preemergence; assay type: in vivo, Chenopodium album; details: for Lambsquarters plant response rating: scale 0 to 100 (0 no effect, 100 complete control)
Outline: as §1

waterhemp [3] = assay: Test C postemergence; assay type: in vivo, Amaranthus rudis
Outline: as §1

foxtail, giant = assay: Test C preemergence; assay type: in vivo, Setaria faberii; details: for Foxtail, Giant plant response rating: scale 0 to 100 (0 no effect, 100 complete control)
Outline: as §1

nutsedge, yellow = assay: Test C postemergence; assay type: in vivo, Cyperus esculentus
Outline: as §1

morningglory [4] = assay: Test C preemergence; assay type: in vivo, Ipomoea coccinea; details: for Morningglory plant response rating: scale 0 to 100 (0 no effect, 100 complete control)
Outline: as §1

pigweed = assay: Test C preemergence; assay type: in vivo, Amaranthus retroflexus; details: for Pigweed plant response rating: scale 0 to 100 (0 no effect, 100 complete control)
Outline: as §1

[5] = preemergence, 31 g ai/ha, visual rating, 13 to 15 days
[6] = preemergence, 62 g ai/ha, 13 to 15 days
[7] = preemergence, 125 g ai/ha, 13 to 15 days, scale 0 to 100, 0 = no effect, 100 = complete control
[8] = Postemergence, 31 g ai/ha, visually evaluated after 13 to 15 days
[9] = postemergence, 62 g ai/ha, scale 0 to 100
[10] = postemergence, 250 g ai/ha, scale 0 to 100 (0 no effect, 100 complete control)
[11] = postemergence, 125 g ai/ha, scale 0 to 100, 0 no effect, 100 complete control

CCOc1cc(C(=O)NC2CC2)nn1Cc1ccnc(OC(F)F)c1 [Compound 133]
5: Plant response rating (scale of 0 to 100 where 0 is no effect and 100 is complete control), Nutsedge, Yellow (nutsedge, yellow; [8]) | Nutsedge, Yellow plant response rating (nutsedge, yellow; [9]) | Plant response rating, Nutsedge, Yellow (nutsedge, yellow; [11])
60: Oilseed Rape plant response rating (oilseed rape; [9]) | Plant response rating (scale of 0 to 100 where 0 is no effect and 100 is complete control), Waterhemp (waterhemp [3]; [8]) | Waterhemp plant response rating (waterhemp [3]; [9])
100: Plant response rating (scale of 0 to 100), Waterhemp (waterhemp [1]; Preemergence, 250 g ai/ha) | Waterhemp plant response rating (waterhemp [1]; [6]) | Plant response rating, Waterhemp (waterhemp [1]; [7]) | Plant response rating (scale of 0 to 100), Velvetleaf (velvetleaf; Preemergence, 250 g ai/ha) | Plant response rating, Velvetleaf (velvetleaf; [7]) | Plant response rating (scale of 0 to 100), Crabgrass, Large (crabgrass, large; Preemergence, 250 g ai/ha) | Crabgrass, Large plant response rating (crabgrass, large; [5]) | Crabgrass, Large plant response rating (crabgrass, large; [6]) | Plant response rating, Crabgrass, Large (crabgrass, large; [7]) | Plant response rating, Morningglory (morningglory [2]; [10]) | Plant response rating (scale of 0 to 100), Lambsquarters (lambsquarters; Preemergence, 250 g ai/ha) | Lambsquarters plant response rating (lambsquarters; [6]) | Plant response rating, Lambsquarters (lambsquarters; [7]) | Plant response rating (scale of 0 to 100), Foxtail, Giant (foxtail, giant; Preemergence, 250 g ai/ha) | Foxtail, Giant plant response rating (foxtail, giant; [6]) | Plant response rating, Foxtail, Giant (foxtail, giant; [7]) | Plant response rating (scale of 0 to 100), Morningglory (morningglory [4]; Preemergence, 250 g ai/ha) | Morningglory plant response rating (morningglory [4]; [6]) | Plant response rating, Morningglory (morningglory [4]; [7]) | Plant response rating (scale of 0 to 100), Pigweed (pigweed; Preemergence, 250 g ai/ha) | Pigweed plant response rating (pigweed; [5]) | Plant response rating, Pigweed (pigweed; [7])
15: Plant response rating, Nutsedge, Yellow (nutsedge, yellow; [10])
50: Plant response rating (scale of 0 to 100 where 0 is no effect and 100 is complete control), Oilseed Rape (oilseed rape; [8])
55: Velvetleaf plant response rating (velvetleaf; [6])
95: Plant response rating, Waterhemp (waterhemp [3]; [10])
75: Plant response rating (scale of 0 to 100 where 0 is no effect and 100 is complete control), Morningglory (morningglory [2]; [8]) | Plant response rating, Oilseed Rape (oilseed rape; [11]) | Lambsquarters plant response rating (lambsquarters; [5]) | Plant response rating, Waterhemp (waterhemp [3]; [11]) | Morningglory plant response rating (morningglory [4]; [5]) | Pigweed plant response rating (pigweed; [6])
40: Plant response rating, Barnyardgrass (barnyardgrass) | Wheat plant response rating (wheat; postemergence, 125 g ai/ha, about 10 days, visual rating on 0 to 100 scale (0 no effect, 100 complete control))
85: Waterhemp plant response rating (waterhemp [1]; [5]) | Plant response rating, Oilseed Rape (oilseed rape; [10]) | Foxtail, Giant plant response rating (foxtail, giant; [5])
35: Velvetleaf plant response rating (velvetleaf; [5])
90: Morningglory plant response rating (morningglory [2]; [9]) | Plant response rating, Morningglory (morningglory [2]; [11]) | Wheat plant response rating (wheat; Postemergence, 500 g ai/ha, 0 to 100 scale (0 no effect, 100 complete control))
